Measurements as given in patent US20180340174A1, “METHOD FOR IDENTIFICATION OF MOLECULES WITH DESIRED CHARACTERISTICS” (NANOCORE APS, priority 2014, published 2018).
Where two headings read alike, the source gives them in different places. Blank lines part the entries; values can stand above or below the molecule they belong to. Where no end group is shown, it is not given here.

Columns and labels:
[1] = molecular target: T1, soluble epoxide hydrolase (sEH) (Homo sapiens, UniProt P34913); conditions: Litovchick 2015; cited from earlier work
T1 sequence (P34913 1-555): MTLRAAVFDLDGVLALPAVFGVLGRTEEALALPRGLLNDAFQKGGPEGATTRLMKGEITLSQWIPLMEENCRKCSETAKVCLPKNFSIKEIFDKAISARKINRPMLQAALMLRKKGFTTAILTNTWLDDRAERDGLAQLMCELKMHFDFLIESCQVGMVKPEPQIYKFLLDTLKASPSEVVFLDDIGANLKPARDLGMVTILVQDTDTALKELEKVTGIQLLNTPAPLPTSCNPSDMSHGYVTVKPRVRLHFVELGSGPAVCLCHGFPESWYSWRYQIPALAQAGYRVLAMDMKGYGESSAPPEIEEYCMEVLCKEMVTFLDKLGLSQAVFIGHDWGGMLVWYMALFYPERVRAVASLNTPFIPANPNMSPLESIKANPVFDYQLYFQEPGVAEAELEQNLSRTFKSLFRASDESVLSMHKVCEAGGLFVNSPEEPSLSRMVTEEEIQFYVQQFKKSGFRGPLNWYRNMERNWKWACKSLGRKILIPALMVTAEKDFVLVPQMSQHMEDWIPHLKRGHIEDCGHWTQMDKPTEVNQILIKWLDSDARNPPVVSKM

[2] = Seker et al. 2011; Chen et al. 2006; cited from earlier work
[3] = Seker et al. 2011; cited from earlier work
[4] = Serizawa et al. 2007; bound to PMMA (syndiotactic); cited from earlier work
[5] = Serizawa et al. 2007; bound to PMMA (isotactic); cited from earlier work
[6] = Eijima et al. 2010; bound to PPV (linear); cited from earlier work
[7] = Eijima et al. 2010; bound to PPV (hyper-branched); cited from earlier work
[8] = Serizawa et al. 2007; cited from earlier work
[9] = Serizawa et al. 2007; bound to Polystyrene (syndiotactic); cited from earlier work
[10] = Serizawa et al. 2007; bound to Polystyrene (atactic); cited from earlier work
[11] = Serizawa et al. 2007; bound to Polystyrene (isotactic); cited from earlier work
[12] = Serizawa et al. 2007; cited from earlier work; remark: listed apart in the source
[13] = Wang et al. 2003; cited from earlier work
[14] = Enrichment of CNT-binding peptide A2 displayed on bacteriophages versus mini-M13, blue/white colony counting
[15] = Li et al. 2013; cited from earlier work
[16] = Islam et al. 2012; bound to Ceramic fluorapatite; cited from earlier work
[17] = Islam et al. 2012; bound to Ceramic hydroxyl-apatite; cited from earlier work
[18] = Matsuno et al. 2008; bound to PLLA (layer by layer); cited from earlier work
[19] = Matsuno et al. 2008; bound to PDLA; cited from earlier work
[20] = Matsuno et al. 2008; bound to PMMA (atactic); cited from earlier work
[21] = Matsuno et al. 2008; bound to PLLA (amorphous); cited from earlier work
[22] = Matsuno et al. 2008; bound to PLLA (melt crystallization); cited from earlier work
[23] = Sano et al. 2005; Meyers et al. 2007; cited from earlier work
[24] = Weiger et al. 2010; read-out: KD to HA; cited from earlier work
[25] = Selection of polynucleotide-tagged molecules on carbon nanotubes without and with PPyCl repeat units in the medium (Example 15.0.0.0); type: binding
Procedure: In this example library molecules (M) are peptides linked by […] (L) to DNA tags encoding the peptide. […] Identification of carbon nanotube binding molecules is described in Brown et al. (Small. 2008 April; 4 (4):416-20). The CNT target is prepared from single-walled carbon nanotubes (purified HiPCO, Carbon Nanotechnologies Inc., US) used as purchased. Bundles and individual tubes are suspended in dichloroethane by sonication and deposited on pieces of double side polished Si wafers. The CNT mats are inspected by scanning electron microscopy. A uniform, dense coverage on both sides of the 1 cm2 substrates is achieved by repeatedly depositing drops from the suspension, rinsing with isopropanol, and blow drying with nitrogen. Test enrichments are conducted inn a phosphate buffer (PKT). The enrichment for adhesion to CNT mats using solution conditions is done similarly to other searches for CNT binders. The population recovered from a single cycle of enrichment for binding to CNTs in a Tris-HCl buffer (TNT) differed from that obtained in PKT.
Binding molecules, which bind efficiently to a filler (carbon nanotubes) but not to a polymer matrix (PPyCl) of a composite material, are identified essentially as described in example 1.1.1.1. […]

Molecule: CN(CCn1cccn1)C(=O)c1ccc(-c2cccc(C(=O)NC3CCCCC3)c2)nc1 [compound 12]
enrichment over two affinity-mediated selection steps compared to the average within the naïve library [1]: approximately 30,000 fold

Molecule: CHKKPSKSC
Kd [2]: 4.1 nM

Molecule: CPTSTGQAC
Kd [3]: 280 nM

Molecule: CTLHVSSYC
Kd [3]: 1100 nM

Molecule: ELWRPTR
Kd [4]: 150000 nM | Kd [5]: 3600 nM

Molecule: ELWSIDTSAHRK
Kd [6]: 13000 nM | Kd [7]: 27000 nM

Molecule: FPGHSGP
Kd [8]: 0.1 nM

Molecule: FPGRPSP
Kd [9]: 0.0085 nM | Kd [10]: 0.031 nM

Molecule: FSWEAFA
Kd [9]: 0.0061 nM | Kd [10]: 0.085 nM | Kd [11]: 0.034 nM

Molecule: GETQCAA
Kd [9]: 0.0074 nM | Kd [10]: 0.034 nM

Molecule: GETRAPL
Kd [9]: 0.0067 nM | Kd [10]: 0.067 nM | Kd [11]: 0.036 nM

Molecule: HKPDANR
Kd [12]: 0.025 nM

Molecule: HLESTPG
Kd [9]: 0.0079 nM | Kd [10]: 0.1 nM | Kd [11]: 0.065 nM

Molecule: HTAQSTA
Kd [9]: 0.01 nM | Kd [10]: 0.014 nM

Molecule: HTDWRLGTWHETS
Kd [6]: 19000 nM | Kd [7]: 1300 nM

Molecule: HWKHPWGAWDTL
Kd [13]: 50000 nM

Enrichment fold ([14]; 1 wash, CNT 0.02 mg/ml, 1.1E+9 bacteriophages): 100 fold | Enrichment fold ([14]; 3 washes, CNT 0.02 mg/ml, 1.1E+9 bacteriophages): 85 fold | Enrichment fold ([14]; 10 washes, CNT 0.02 mg/ml, 1.1E+9 bacteriophages): 91 fold | Enrichment fold ([14]; one wash, CNT 0.02 mg/ml, 1.1E+11 bacteriophages): 2 fold | Enrichment fold ([14]; one wash, CNT 0.2 mg/ml, 1.1E+9 bacteriophages): 23 fold | Enrichment fold ([14]; one wash, CNT 0.2 mg/ml, 1.1E+11 bacteriophages): 7 fold | Enrichment fold ([14]; one wash, CNT 2 mg/ml, 1.1E+9 bacteriophages): 4 fold | Enrichment fold ([14]; one wash, CNT 2 mg/ml, 1.1E+11 bacteriophages): 10 fold | Enrichment fold ([14]; ten washes with 1 min. sonication at 35 kHz and 160 W during washing, CNT 0.2 mg/ml, 1.1E+11 bacteriophages): 15 fold | Enrichment fold ([14]; ten washes, CNT 0.02 mg/ml, 1.1E+11 bacteriophages): 8 fold | Enrichment fold ([14]; ten washes, CNT 0.2 mg/ml, 1.1E+9 bacteriophages): 17 fold | Enrichment fold ([14]; ten washes, CNT 0.2 mg/ml, 1.1E+11 bacteriophages): 19 fold | Enrichment fold ([14]; ten washes, CNT 2 mg/ml, 1.1E+9 bacteriophages): 2 fold | Enrichment fold ([14]; ten washes, CNT 2 mg/ml, 1.1E+11 bacteriophages): 3 fold | Enrichment fold ([14]; three washes with 1 min. sonication at 35 kHz and 160 W during washing, CNT 0.2 mg/ml, 1.1E+11 bacteriophages): 17 fold | Enrichment fold ([14]; three washes, CNT 0.02 mg/ml, 1.1E+11 bacteriophages): 16 fold | Enrichment fold ([14]; three washes, CNT 0.2 mg/ml, 1.1E+9 bacteriophages): 16 fold | Enrichment fold ([14]; three washes, CNT 0.2 mg/ml, 1.1E+11 bacteriophages): 16 fold | Enrichment fold ([14]; three washes, CNT 2 mg/ml, 1.1E+9 bacteriophages): 2 fold | Enrichment fold ([14]; three washes, CNT 2 mg/ml, 1.1E+11 bacteriophages): 4 fold
Molecule: IFRLSWGTYFS [A2]
Kd [15]: 20000 nM

Molecule: KPRSVSG
Kd [16]: 5400 nM | Kd [17]: 7200 nM

Molecule: QLMHDYR
Kd [18]: 67000 nM | Kd [19]: 21000 nM | Kd [20]: 180000 nM | Kd [21]: 150000 nM | Kd [22]: 16000 nM

Molecule: QTWPPPLWFSTS
Kd [2]: 810 nM

Molecule: RHEPPLA
Kd [9]: 0.011 nM | Kd [10]: 0.056 nM | Kd [11]: 0.021 nM

Molecule: RKLPDAPGMHTW
Kd [23]: 13000 nM

Molecule: RLNPPSQMDPPF
Kd [2]: 8300 nM

Molecule: SCSDCLKSVDFIPSSLASS
Kd [23]: 250 nM

Molecule: SVSVGMKPSPRPGGGK
Kd [24]: 14100 nM

Molecule: THLPWQT
Kd [8]: 0.067 nM

Molecule: YLTMPTP
Kd [9]: 0.005 nM | Kd [10]: 0.022 nM

Molecule: polynucleotide-tagged THRTSTLDYFVI-pyrene: polynucleotide-tagged peptide-pyrene which can bind to both carbon nanotubes and PPyCl (also: polynucleotide tag, site not given here)
Outcome of selection on carbon nanotubes ([25]; first experiment, medium as in example 1.1.1.1): identified as carbon nanotube binding molecules | Outcome of selection on carbon nanotubes ([25]; second experiment, medium comprises repeat units of PPyCl): removed during the partitioning step
